Laboratory results published in patent publication US11286228B2, “Stilbene derivative and method for preparing same” (Ozchela Inc., priority 2016, dated 2022).

Tested on: hepatitis C virus
Test: Antiviral activity in HCV replicon cells (Renilla luciferase)
Assay type: cell-based
Details: HCV replicon cells, 72 hr, Renilla luciferase, relative to DMSO; read-out: Test Example 3: antiviral activity (EC50)
Experimental: The antiviral activity of the stilbene derivatives on hepatitis C virus was measured. The replicon cells that stably replicate the hepatitis C virus genome were attached to a culture plate and cultured in a CO2 incubator at 37° C. for 24 hr. The replicon cells cultured for one day were washed with a PBS solution, treated with the compounds of the present invention, and then cultured for 72 hr. The stilbene derivative-treated replicon cells were washed with a cold PBS solution and added with 20 μL of a cell lysis solution so that the cells were lysed in ice for 20 min. 100 μL of a Renilla luciferase substrate was added thereto, after which the luminescence thereof was measured and thus the amount of the hepatitis C virus genome was estimated. The amount of the hepatitis C virus genome in the stilbene derivative-treated replicon cells according to the present invention relative to the amount of the hepatitis C virus genome in dimethylsulfoxide (DMSO)-treated replicon cells is shown.
Compounds 1 to 155 of Tables 1 to 10 may be grouped as follows based on the antiviral activity (EC50) values: […]

`CCOc1ccc(C(C#N)=Cc2ccccc2C(=O)O)cc1` [Compound 17] and `CCc1ccc(C(C#N)=Cc2ccccc2C(=O)O)cc1` [Compound 2] fall in the same range of EC50: 5 to 50 µM for the first, 5 to 50 µM for the second.

First: N#CC(=Cc1ccccc1OCC1CC1)c1ccc([N+](=O)[O-])cc1 [Compound 27]
Second: CCc1ccc(C(C#N)=Cc2ccccc2N(C)C)cc1 [Compound 3]
The EC50 of the first is lower: 0.5 to 5 µM for the first, 5 to 50 µM for the second.

Work on `CC(C)(C)C(=O)c1ccc(C(C#N)=Cc2ccccc2C(=O)O)cc1` [Compound 15] yielded an EC50 of 5 to 50 µM.

Same assay, conditions: HCV replicon cells; read-out: Test Example 3: antiviral activity (EC50) group

`CC(C)(C)Cc1ccc(C=Cc2cc(O)ccc2C(=O)O)cc1` [Compound 153] and `CCCCOC(=O)c1cccnc1C=Cc1ccc(CC(C)(C)C)cc1` [Compound 148] fall in the same range of EC50: 0.5 to 5 µM for the first, 0.5 to 5 µM for the second.

Same assay, conditions: Hepatitis C virus, 72 h, read-out: Test Example 3: antiviral activity (EC50)

`CCCCOC(=O)c1ccccc1C=C(I)c1ccc(Cc2ccccc2)cc1` [Compound 123] and `CCCCOC(=O)c1ccccc1C=C(C)c1ccc(Cc2ccccc2)cc1` [Compound 97] fall in the same range of EC50: 0.5 to 5 µM for the first, 0.5 to 5 µM for the second.

`CC(C)C(C)Cc1ccc(C(C#N)=Cc2ccccc2C(=O)O)cc1` (stereo not drawn) [Compound 58] and `CCCCOC(=O)c1ccccc1C=C(N)c1ccc(Cc2ccccc2)cc1` [Compound 111] fall in the same range of EC50: 0.5 to 5 µM for the first, 0.5 to 5 µM for the second.

Same assay, conditions: Hepatitis C virus; HCV replicon cells, 72 hr, Renilla luciferase, relative to DMSO; read-out: Test Example 3: antiviral activity (EC50)

Compared with `N#CC(=Cc1ccccc1N)c1ccc([N+](=O)[O-])cc1` [Compound 24], `Cc1ccc(CCc2ccccc2C=C(C#N)c2ccc([N+](=O)[O-])cc2)cc1` [Compound 52] is lower in EC50: 5 to 50 µM for the first, 0.5 to 5 µM for the second.

First: CCCCOC(=O)c1ccccc1C=Cc1ccc(CC(C)(C)C)cc1C [Compound 67]
Second: CC(C)(C)Cc1ccc(C=Cc2ccccc2C(N)=O)cc1 [Compound 141]
The EC50 of the first is higher: 0.5 to 5 µM for the first, less than 0.5 µM for the second. The second is the more potent here.

`CC(C)(C)Cc1ccc(C(N)=Cc2ccccc2C(=O)OC2CCCCC2)cc1` [Compound 107] and `CC(=Cc1ccccc1C(=O)OCC1CCCCC1)c1ccc(CC(C)(C)C)cc1` [Compound 90] fall in the same range of EC50: 0.5 to 5 µM for the first, 0.5 to 5 µM for the second.

`CC(C)OC(=O)c1ccccc1C=C(Br)c1ccc(CC(C)(C)C)cc1` [Compound 118] and `CC(C)(C)Cc1ccc(C=Cc2ccc(N)cc2C(=O)O)cc1` [Compound 138] cannot be ordered by EC50: less than 0.5 µM for the first, less than 0.5 µM for the second.

Compared with `CCCCOc1ccc(C(C#N)=Cc2ccccc2OC)cc1` [Compound 18], `N#CC(=Cc1ccccc1C(=O)O)c1ccc(CCC2CCCCC2)cc1` [Compound 60] is lower in EC50: 0.5 to 5 µM for the first, less than 0.5 µM for the second.

First: CCCCOC(=O)c1ccccc1C=C(C)c1ccc(CC2CCCCC2)cc1 [Compound 96]
Second: CC(C)(C)Cc1ccc(C=Cc2ccc(O)cc2C(=O)O)cc1 [Compound 136]
The EC50 of the first is higher: 0.5 to 5 µM for the first, less than 0.5 µM for the second. The second is the more potent here.

Tested on: mitochondria obtained from hepatocytes
Test: Inhibitory activity on calcium-induced mitochondrial swelling (absorbance 520 nm)
Details: Hepatocyte; calcium-induced swelling of extracted mitochondria; read-out: Test Example 4: inhibiting mitochondrial swelling (IC50)
Description: Cyclophilin is a key protein for forming permeability transition pores (PTP) in mitochondria. When permeability transition pores are formed, mitochondria swell, whereby the outer membrane thereof ruptures and thus cell death progresses. Such mitochondrial dysfunction causes many diseases including neurodegenerative diseases, cancer, and the like. Cyclosporine, a known cyclophilin inhibitor, is capable of preventing the formation of permeability transition pores to thus suppress mitochondrial swelling.
The mitochondrial swelling test was performed as follows. Specifically, the hepatocytes were disrupted using a Dounce tissue grinder. The disrupted cells were centrifuged at 700×g for 10 min and the supernatant was transferred into a new tube. The supernatant was centrifuged at 12,000×g for 15 min, thereby obtaining mitochondria.
When the extracted mitochondria were added with calcium, they swelled, which may be observed by measuring the absorbance at 520 nm. The stilbene derivatives are effective at inhibiting mitochondrial swelling due to calcium.
The activity of Compounds 1 to 155 of Tables 1 to 10 on inhibiting mitochondrial swelling may be determined based on IC50 values, and may be grouped as follows: […]

Compared with `N#CC(=Cc1ccccc1N)c1ccc([N+](=O)[O-])cc1` [Compound 24], `Cc1ccc(CCc2ccccc2C=C(C#N)c2ccc([N+](=O)[O-])cc2)cc1` [Compound 52] is lower in IC50: 50 to 500 µM for the first, 5 to 50 µM for the second. The second is the more potent here.

Compared with `CCCCOC(=O)c1ccccc1C=Cc1ccc(CC(C)(C)C)cc1C` [Compound 67], `CC(C)(C)Cc1ccc(C=Cc2ccccc2C(N)=O)cc1` [Compound 141] is lower in IC50: 5 to 50 µM for the first, less than 5 µM for the second. The second is the more potent here.

`CC(C)(C)Cc1ccc(C(N)=Cc2ccccc2C(=O)OC2CCCCC2)cc1` [Compound 107] and `CC(=Cc1ccccc1C(=O)OCC1CCCCC1)c1ccc(CC(C)(C)C)cc1` [Compound 90] fall in the same range of IC50: 5 to 50 µM for the first, 5 to 50 µM for the second.

Compared with `CC(C)OC(=O)c1ccccc1C=C(Br)c1ccc(CC(C)(C)C)cc1` [Compound 118], `CC(C)C(C)Cc1ccc(C(C#N)=Cc2ccccc2C(=O)O)cc1` (stereo not drawn) [Compound 58] is higher in IC50: less than 5 µM for the first, 5 to 50 µM for the second.

`CCCCOc1ccc(C(C#N)=Cc2ccccc2OC)cc1` [Compound 18] and `CCCCOC(=O)c1ccccc1C=C(C)c1ccc(Cc2ccccc2)cc1` [Compound 97] fall in the same range of IC50: 5 to 50 µM for the first, 5 to 50 µM for the second.

`CC(C)(C)Cc1ccc(C=Cc2ccc(N)cc2C(=O)O)cc1` [Compound 138] and `CC(C)(C)Cc1ccc(C=Cc2ccc(O)cc2C(=O)O)cc1` [Compound 136] cannot be ordered by IC50: less than 5 µM for the first, less than 5 µM for the second.

First: CCCCOC(=O)c1ccccc1C=C(C)c1ccc(CC2CCCCC2)cc1 [Compound 96]
Second: N#CC(=Cc1ccccc1C(=O)O)c1ccc(CCC2CCCCC2)cc1 [Compound 60]
The IC50 of the first is higher: 5 to 50 µM for the first, less than 5 µM for the second. The second is the more potent here.

`CCCCOC(=O)c1ccccc1C=C(I)c1ccc(Cc2ccccc2)cc1` [Compound 123] and `CCCCOC(=O)c1ccccc1C=C(N)c1ccc(Cc2ccccc2)cc1` [Compound 111] fall in the same range of IC50: 5 to 50 µM for the first, 5 to 50 µM for the second.

Same assay, conditions: calcium-induced swelling of extracted mitochondria; read-out: Test Example 4: inhibiting mitochondrial swelling (IC50)

`CCOc1ccc(C(C#N)=Cc2ccccc2C(=O)O)cc1` [Compound 17] and `CCc1ccc(C(C#N)=Cc2ccccc2C(=O)O)cc1` [Compound 2] fall in the same range of IC50: 50 to 500 µM for the first, 50 to 500 µM for the second.

First: N#CC(=Cc1ccccc1OCC1CC1)c1ccc([N+](=O)[O-])cc1 [Compound 27]
Second: CCc1ccc(C(C#N)=Cc2ccccc2N(C)C)cc1 [Compound 3]
The IC50 of the first is lower: 5 to 50 µM for the first, 50 to 500 µM for the second. The first is the more potent here.

`CC(C)(C)C(=O)c1ccc(C(C#N)=Cc2ccccc2C(=O)O)cc1` [Compound 15] gave an IC50 of 50 to 500 µM.

Same assay, conditions: read-out: Test Example 4: activity on inhibiting mitochondrial swelling (IC50) group

`CC(C)(C)Cc1ccc(C=Cc2cc(O)ccc2C(=O)O)cc1` [Compound 153] and `CCCCOC(=O)c1cccnc1C=Cc1ccc(CC(C)(C)C)cc1` [Compound 148] fall in the same range of IC50: 5 to 50 µM for the first, 5 to 50 µM for the second.

Biological target: cyclophilin
Test: Cis-trans isomerase inhibitory activity (chymotrypsin-coupled Suc-AAPF-pNA cleavage, absorbance 390 nm)
Assay type: biochemical
Details: cyclophilin, chymotrypsin, Suc-AAPF-pNA; read-out: Test Example 1: cis-trans isomerase inhibitory activity (IC50)
Description: Chymotrypsin cleaves a trans-type alanine-proline peptide bond. When Suc-AAPF-pNA (a peptide substrate) and chymotrypsin are mixed, the trans-type peptide substrate is cleaved and the cis-type peptide substrate remains. The remaining cis-type peptide substrate is converted into a trans form by a cis-trans isomerase and is then cleaved again by chymotrypsin. When the cis-trans isomerase is present, chymotrypsin is able to cleave a larger amount of trans-type peptide substrate within a predetermined period of time, from which the activity of the cis-trans isomerase may be determined. The amount of the cleaved trans-type peptide substrate is measured using absorbance at 390 nm. Cyclophilin has cis-trans isomerase activity, and accelerates the cleavage of trans-type peptide substrate by chymotrypsin. When the stilbene derivatives of the present invention were treated together with cyclophilin, the cleavage of the peptide substrate by chymotrypsin was not observed to accelerate. Thereby, the stilbene derivatives of the invention can be concluded to inhibit the activity of cyclophilin.

First: N#CC(=Cc1ccccc1N)c1ccc([N+](=O)[O-])cc1 [Compound 24]
Second: N#CC(=Cc1ccccc1OCC1CC1)c1ccc([N+](=O)[O-])cc1 [Compound 27]
The IC50 of the first is higher: 200 to 2000 nM for the first, 20 to 200 nM for the second.

First: Cc1ccc(CCc2ccccc2C=C(C#N)c2ccc([N+](=O)[O-])cc2)cc1 [Compound 52]
Second: CCc1ccc(C(C#N)=Cc2ccccc2C(=O)O)cc1 [Compound 2]
The IC50 of the first is lower: 20 to 200 nM for the first, 200 to 2000 nM for the second. The first is the more potent here.

First: CCOc1ccc(C(C#N)=Cc2ccccc2C(=O)O)cc1 [Compound 17]
Second: CC(C)C(C)Cc1ccc(C(C#N)=Cc2ccccc2C(=O)O)cc1 (stereo not drawn) [Compound 58]
The IC50 of the first is higher: 200 to 2000 nM for the first, 20 to 200 nM for the second. The second is the more potent here.

`CCCCOC(=O)c1ccccc1C=Cc1ccc(CC(C)(C)C)cc1C` [Compound 67] and `CC(C)(C)Cc1ccc(C=Cc2ccccc2C(N)=O)cc1` [Compound 141] cannot be ordered by IC50: 20 to 200 nM for the first, no more than 20 nM for the second.

`CC(C)(C)Cc1ccc(C(N)=Cc2ccccc2C(=O)OC2CCCCC2)cc1` [Compound 107] and `CC(=Cc1ccccc1C(=O)OCC1CCCCC1)c1ccc(CC(C)(C)C)cc1` [Compound 90] fall in the same range of IC50: 20 to 200 nM for the first, 20 to 200 nM for the second.

First: CC(C)OC(=O)c1ccccc1C=C(Br)c1ccc(CC(C)(C)C)cc1 [Compound 118]
Second: CC(C)(C)C(=O)c1ccc(C(C#N)=Cc2ccccc2C(=O)O)cc1 [Compound 15]
The IC50 of the first is lower: no more than 20 nM for the first, 200 to 2000 nM for the second. The first is the more potent here.

Compared with `CCCCOc1ccc(C(C#N)=Cc2ccccc2OC)cc1` [Compound 18], `CCc1ccc(C(C#N)=Cc2ccccc2N(C)C)cc1` [Compound 3] is higher in IC50: 20 to 200 nM for the first, 200 to 2000 nM for the second. The first is the more potent here.

`CC(C)(C)Cc1ccc(C=Cc2ccc(N)cc2C(=O)O)cc1` [Compound 138] and `CC(C)(C)Cc1ccc(C=Cc2ccc(O)cc2C(=O)O)cc1` [Compound 136] cannot be ordered by IC50: no more than 20 nM for the first, no more than 20 nM for the second.

`CCCCOC(=O)c1ccccc1C=C(C)c1ccc(CC2CCCCC2)cc1` [Compound 96] and `CCCCOC(=O)c1ccccc1C=C(C)c1ccc(Cc2ccccc2)cc1` [Compound 97] fall in the same range of IC50: 20 to 200 nM for the first, 20 to 200 nM for the second.

`N#CC(=Cc1ccccc1C(=O)O)c1ccc(CCC2CCCCC2)cc1` [Compound 60] and `CCCCOC(=O)c1ccccc1C=C(I)c1ccc(Cc2ccccc2)cc1` [Compound 123] cannot be ordered by IC50: no more than 20 nM for the first, 20 to 200 nM for the second.

Work on `CCCCOC(=O)c1ccccc1C=C(N)c1ccc(Cc2ccccc2)cc1` [Compound 111] yielded an IC50 of 20 to 200 nM.

Same assay, conditions: read-out: Test Example 1: cis-trans isomerase inhibitory activity (IC50) group

`CC(C)(C)Cc1ccc(C=Cc2cc(O)ccc2C(=O)O)cc1` [Compound 153] and `CCCCOC(=O)c1cccnc1C=Cc1ccc(CC(C)(C)C)cc1` [Compound 148] fall in the same range of IC50: 20 to 200 nM for the first, 20 to 200 nM for the second.
